How the values were obtained:
Type in all cases: binding
Aster-C = molecular target: T1, Aster-C (Homo sapiens, UniProt Q8IYS0); test: Fluorescence polarisation (FP) competition with NBD-cholesterol, Aster-C; conditions: for IC50: mean of three experiments run in technical duplicates; for inhibition at 10 µM / Aster-C (FP) inhibition: single dose, Dose = 10 µM
T1 construct: -C(318-504); GST (PreScission-cleavable) (N, cleaved yes); made in house; host or cells: E. coli OverExpress C41
From the text: (§1) Protein expression constructs
(§2) Human ASTER domains of Aster-A(359-547), -B(364-552) and -C(318-504) were subcloned into a pGEX-6p-2rbs vector, thus introducing the cloning artifact ‘GPLGS’.3 The pGEX-6P-1-GST-OSBP(377- […]
(§3) a gift from James H. Hurley (University of California).4 The pHIS_2His6_Thrombin_STARD4(2-205;C75S) plasmid was a gift from Young Jun Im (Chonnam National University).5 STARD5A was a gift from Nicola Burgess-Brown (Addgene plasmid #42392; http://n2t.net/addgene:42392; […]
(§4) Protein expression and purification […]
(§5) vectors including an N-terminal PreScission-cleavable glutathione S-transferase (GST)-tag were expressed in Escherichia coli (E. coli) OverExpress C41 in Terrific Broth (TB) medium for 16 h at 18 °C after the induction with 0.1 mM isopropyl β-D-1-thiogalactopyranoside (IPTG). Cells were harvested at 3500 × g for 15 minutes and lysed by sonication in buffer containing 50 mM HEPES pH 7.5, 300 mM NaCl, 10 %v/v glycerol, 5 mM dithiothreitol (DTT), 0.1 %v/v Triton X-100 and protease inhibitor mix HP plus (Serva). The lysate was purified by affinity chromatography on a GSTrap FF column (Cytiva) using an ÄKTA Start (Cytiva) in buffer containing 50 mM HEPES pH 7.5, 300 mM NaCl, 10 %v/v glycerol, 5 mM DTT and 0.01 %v/v Triton X-100. The GST-tag was cleaved overnight on the column at 4 °C. The Aster sterol binding domains were further purified by size-exclusion chromatography (SEC) on a HiLoad 16/600 Superdex 75 pg (Cytiva) in buffer containing 20 mM HEPES pH 7.5, 300 mM NaCl, 10 %v/v […]
(§6) STARD5(6-213) harboring an N-terminal His6-Tag were expressed in E. coli BL21(DE3) in Luria-Bertani Broth (LB) medium for approximately 16 h at 18 °C after induction with 0.15 mM IPTG. Cells were harvested at 3500 × g for 15 minutes and lysed by sonication in buffer containing 50 mM HEPES pH 7.5, 150 mM NaCl, 5 %v/v glycerol, 5 mM DTT, 0.1 %v/v Triton X -100 and ethylenediaminetetraacetic acid (EDTA)-free protease inhibitor cocktail (Sigma-Aldrich). The cleared lysate was purified by affinity chromatography on a Ni-NTA Superflow Cartridge (Qiagen) using an ÄKTA Start (Cytiva) in buffer containing 50 mM HEPES pH 7.5, 150 mM NaCl, 5 %v/v glycerol, 5 mM DTT. START domains were eluted by using elution buffer containing 50 mM HEPES pH 7.5, 150 mM NaCl, 5 %v/v glycerol, 5 mM DTT and 500 mM imidazole. Proteins were further purified by SEC on a HiLoad 16/600 Superdex 75 pg (Cytiva) in buffer containing 20 mM HEPES pH 7.5, 150 mM NaCl, 5 %v/v glycerol and 2 mM DTT.
(§7) The ORP domain of human OSBP(377-807) in the pGEX-6p-1 vector with an N-terminal PreScission-cleavable GST-tag was expressed in E. coli OverExpress C41 in LB medium for 16 h at 18 °C after induction with 0.1 mM IPTG. Cells were harvested at 3500 × g for 15 minutes and lysed by sonication in buffer containing 20 mM HEPES pH 7.5, 300 mM NaCl, 10 %v/v glycerol, 5 mM DTT, 0.1 %v/v Triton X-100 and EDTA-free protease inhibitor cocktail (Sigma-Aldrich). The cleared lysate was purified by affinity chromatography on a GSTrap HF column (Cytiva) using an ÄKTA Start (Cytiva) in buffer containing 20 mM HEPES pH 7.5, 300 mM NaCl, 10 %v/v glycerol, 5 mM DTT. OSBP(377 -807) was eluted by using elution buffer containing 20 mM HEPES pH 7.5, 300 mM NaCl, 10 %v/v glycerol, 5 mM DTT and 10 mM reduced glutathione. Proteins were further purified by SEC on a HiLoad 16/600 Superdex 75 pg (Cytiva) using an ÄKTA Explorer (Cytiva) in buffer containing 20 mM HEPES pH 7.5, 150 mM NaCl, 10 %v/v glycerol and 2 mM DTT.
(§8) The ORP domains of human ORP1(534-950) in pET24b(+) and ORP2(49-480) in the pET24b(+) vector including an N-terminal His6-Tag were expressed in E. coli BL21(DE3) in TB medium for approximately 16 h at 18 °C after induction with 0.1 mM IPTG. Cells were collected at 3500 × g for 15 minutes and lysed by sonification in buffer containing 10 mM Tris-HCl pH 8, 300 mM NaCl, 5 % glycerol, 2 mM DTT, 0.1 % Triton X-100 and EDTA-free protease inhibitor cocktail (Sigma-Aldrich). The cleared […]

ORP1 = molecular target: T2, ORP1 (Homo sapiens, UniProt Q9BXW6); test: Fluorescence polarisation (FP) competition with NBD-cholesterol, ORP1; conditions: for IC50: mean of three experiments run in technical duplicates; for inhibition at 10 µM / ORP1 (FP) inhibition: single dose, Dose = 10 µM
T2 construct: ORP1(534-950); host or cells: E. coli BL21(DE3)
T2 sequence (Q9BXW6 534-950): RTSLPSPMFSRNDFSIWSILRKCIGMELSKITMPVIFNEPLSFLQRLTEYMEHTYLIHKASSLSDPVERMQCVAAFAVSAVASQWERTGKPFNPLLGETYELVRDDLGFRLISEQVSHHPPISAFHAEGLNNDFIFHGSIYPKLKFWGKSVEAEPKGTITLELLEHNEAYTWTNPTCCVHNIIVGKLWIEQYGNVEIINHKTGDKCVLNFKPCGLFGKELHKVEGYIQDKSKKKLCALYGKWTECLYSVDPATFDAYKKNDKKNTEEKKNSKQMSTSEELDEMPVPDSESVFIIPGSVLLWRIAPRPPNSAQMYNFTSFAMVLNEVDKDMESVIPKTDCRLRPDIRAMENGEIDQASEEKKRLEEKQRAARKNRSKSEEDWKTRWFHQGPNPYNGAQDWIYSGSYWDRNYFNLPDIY
From the text: as §1, §2, §3, §4, §5, §6, §7, §8

STARD1 = molecular target: T3, STARD1 (Homo sapiens, UniProt P49675); test: Fluorescence polarisation (FP) competition with NBD-cholesterol, STARD1; conditions: for IC50: mean of three experiments run in technical duplicates; for inhibition at 10 µM / STARD1 (FP) inhibition: single dose, Dose = 10 µM
T3 construct: STARD1(66-284); made in house; host or cells: E. coli BL21(DE3)
T3 sequence (P49675 66-284): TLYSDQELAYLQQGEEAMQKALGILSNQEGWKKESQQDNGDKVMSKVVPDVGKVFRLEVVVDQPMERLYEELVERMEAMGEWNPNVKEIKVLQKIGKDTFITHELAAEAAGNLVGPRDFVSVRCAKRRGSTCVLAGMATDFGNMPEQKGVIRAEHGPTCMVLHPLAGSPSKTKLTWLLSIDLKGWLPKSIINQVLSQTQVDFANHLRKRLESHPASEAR

T1 sequence (Q8IYS0 318-504): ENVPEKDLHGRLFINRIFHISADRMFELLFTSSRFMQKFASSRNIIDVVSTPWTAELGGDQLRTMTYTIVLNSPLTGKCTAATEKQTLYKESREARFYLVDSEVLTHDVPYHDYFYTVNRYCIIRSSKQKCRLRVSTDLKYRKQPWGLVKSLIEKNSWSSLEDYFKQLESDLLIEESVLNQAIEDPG

`C[C@]12CC[C@@H]3C[C@H]1CC[C@@]21C(=Nc2ccc(Br)cc21)O3` (racemic) [Compound 15b] gave an IC50 (Aster-C) greater than 80 µM, an inhibition at 10 µM (Aster-C) of -1.6% and an IC50 (ORP1) of 20.9 µM. It also gave an inhibition at 10 µM (ORP1) of 60%, an IC50 (STARD1) greater than 80 µM and an inhibition at 10 µM (STARD1) of 27%.
`CC12CCC3CC1CCC21C(=Nc2ccc(N4CCOCC4)cc21)O3` (racemic) [Compound 19a] gave an IC50 (Aster-C) greater than 80 µM, an inhibition at 10 µM (Aster-C) of -5% and an IC50 (ORP1) greater than 80 µM. It also gave an inhibition at 10 µM (ORP1) of 0%, an IC50 (STARD1) greater than 80 µM and an inhibition at 10 µM (STARD1) of 20%.
For `CC12CCC3CC1CCC21C(=Nc2ccc(Br)cc21)O3` (single isomer, unassigned; (+)) [(+)-15b], the IC50 (Aster-C) was greater than 80 µM, the inhibition at 10 µM (Aster-C) was 0% and the IC50 (ORP1) was greater than 80 µM. It also gave an inhibition at 10 µM (ORP1) of 0%, an IC50 (STARD1) greater than 80 µM and an inhibition at 10 µM (STARD1) of 7%.
`CC12CCC3CC1CCC21C(=Nc2ccc(N4CCOCC4)cc21)O3` (single isomer, unassigned; (+)) [(+)-19a] was tested, and the IC50 (Aster-C) was greater than 80 µM, the “Aster-C (FP) inhibition” value (Aster-C) was -0.8% and the IC50 (ORP1) was greater than 80 µM. For the same compound, the “ORP1 (FP) inhibition” value (ORP1) was -3.3%, the IC50 (STARD1) was greater than 80 µM and the “STARD1 (FP) inhibition” value (STARD1) was 12%.
For `CC12CCC3CC1CCC21C(=Nc2ccc(N4CCOCC4)cc21)O3` (single isomer, unassigned; (-)) [(−)-19a], the IC50 (Aster-C) was greater than 80 µM, the “Aster-C (FP) inhibition” value (Aster-C) was -1.6% and the IC50 (ORP1) was greater than 50 µM. For the same compound, the “ORP1 (FP) inhibition” value (ORP1) was 15.0%, the IC50 (STARD1) was greater than 80 µM and the “STARD1 (FP) inhibition” value (STARD1) was 30%.
`C[C@@]12CC[C@H]3C[C@@H]1CC[C@]21C(=Nc2ccc(Br)cc21)O3` [(−)-15b] showed an IC50 (Aster-C) greater than 80 µM, an inhibition at 10 µM (Aster-C) of -0.8% and an IC50 (ORP1) of 15.3 µM. For the same compound, the inhibition at 10 µM (ORP1) was 68.3%, the IC50 (STARD1) was 42.6 µM and the inhibition at 10 µM (STARD1) was 38%.
For `CC(C)Oc1ccc(C(=O)Nc2nc3c(s2)CN(C(=O)OC(C)(C)C)CC3)cc1` [Autogramin-2, reference compound], the IC50 (Aster-C) was greater than 80 µM, the “Aster-C (FP) inhibition” value (Aster-C) was -1.6% and the IC50 (ORP1) was 4.26 µM. For the same compound, the “ORP1 (FP) inhibition” value (ORP1) was 57.5%, the IC50 (STARD1) was greater than 80 µM and the “STARD1 (FP) inhibition” value (STARD1) was 22%.
With `Cc1c2c(nc3ccccc13)[C@@]1(C)CC[C@@H](O)C[C@H]1CC2` [Compound 2a] the inhibition at 10 µM (Aster-C) was -2.4%, the inhibition at 10 µM (ORP1) was 53.3% and the inhibition at 10 µM (STARD1) was 30%.
`C[C@]12CC[C@@H](O)C[C@H]1CCc1c2nc2ccccc2c1-c1ccccc1` [Compound 2b] was tested, and the “Aster-C (FP) inhibition” value (Aster-C) was -5.6%, the “ORP1 (FP) inhibition” value (ORP1) was 11.7% and the “STARD1 (FP) inhibition” value (STARD1) was -3.33%.
`Cc1c2c(nc3cc(Br)ccc13)[C@@]1(C)CC[C@@H](O)C[C@H]1CC2` [Compound 2c] was tested, and the “Aster-C (FP) inhibition” value (Aster-C) was -1.6%, the “ORP1 (FP) inhibition” value (ORP1) was 81.7% and the “STARD1 (FP) inhibition” value (STARD1) was 70%.
`C[C@]12CC[C@@H](O)C[C@H]1CCc1c2nc2ccccc2c1-c1ccc(F)cc1` [Compound 2d] gave an inhibition at 10 µM (Aster-C) of -2.4%, an inhibition at 10 µM (ORP1) of 5% and an inhibition at 10 µM (STARD1) of -8%.
